{
  "source": "paper PMC7501296",
  "about": "“Rapid and direct control of target protein levels with VHL-recruiting dTAG molecules” (Nature Communications, 2020)",
  "type_in_all_cases": "cell-based",
  "key": {"[1]": {"test_system": "PATU-8902 LACZ-FKBP12^F36V clone", "assay": "Antiproliferation, PATU-8902 LACZ-FKBP12F36V clone, 3D-spheroid (CellTiter-Glo)", "conditions": "120 h", "summary_of_the_method": "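Viability of cells grown as ultra-low adherent 3D-spheroids was determined with the CellTiter-Glo reagent (Promega). Luminescence was read on either an Envision 2104 plate reader (PerkinElmer) or a Fluostar Omega Reader (BMG Labtech). The resulting data were analyzed with GraphPad PRISM v8.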"}, "[2]": {"test_system": "PATU-8902 FKBP12^F36V-KRAS^G12V; KRAS^-/- clone", "assay": "Antiproliferation, PATU-8902 FKBP12F36V-KRASG12V; KRAS-/- clone, 2D-monolayer (CellTiter-Glo)"}, "[3]": {"test_system": "PATU-8902 LACZ-FKBP12^F36V clone", "assay": "Antiproliferation, PATU-8902 LACZ-FKBP12F36V clone, 2D-monolayer (CellTiter-Glo)", "summary_of_the_method": "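Viability of cells grown as 2D-adherent monolayers was determined with the CellTiter-Glo luminescent reagent (Promega). Luminescence signals were read on either an Envision 2104 plate reader (PerkinElmer) or a Fluostar Omega Reader (BMG Labtech), and the resulting data were processed and analyzed in GraphPad PRISM v8 software.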"}, "FKBP12^WT-Nluc": {"target": "T1, FKBP12^WT-Nluc (Homo sapiens, UniProt P62942)", "T1 construct": "expressed in transfected cells; host or cells: 293FT", "T1 sequence (P62942 2-108 limits assumed)": "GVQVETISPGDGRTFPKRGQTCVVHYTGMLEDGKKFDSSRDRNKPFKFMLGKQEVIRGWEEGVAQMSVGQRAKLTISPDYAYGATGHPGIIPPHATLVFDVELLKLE", "assay": "FKBP12WT-Nluc dual luciferase assay (293FT)", "conditions": "293FT, 24 h", "summary_of_the_method": "(§1)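 293FT cells expressing FKBP12^WT-Nluc or FKBP12^F36V-Nluc with Fluc were treated with compound for 24 h at 37 °C. Fluc, then Nluc, luminescence was read with Dual-Glo reagents. Values are DMSO-normalised Nluc/Fluc ratios.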"}, "FKBP12^F36V-Nluc": {"target": "T2, FKBP12^F36V-Nluc (Homo sapiens, UniProt P62942, F37V)", "T2 construct": "expressed in transfected cells; host or cells: 293FT", "T2 sequence (P62942 2-108 F37V limits assumed)": "as the sequence (P62942 2-108 limits assumed) above, with F36V counted along it", "assay": "FKBP12F36V-Nluc dual luciferase assay (293FT)", "conditions": "293FT, 24 h", "summary_of_the_method": "as §1"}, "[4]": {"conditions": "log10[compound] (M) -5.69897, replicate values"}, "[5]": {"conditions": "log10[compound] (M) -6.19897, replicate values"}, "[6]": {"conditions": "log10[compound] (M) -6.69897, replicate values"}, "[7]": {"conditions": "log10[compound] (M) -7.19897, replicate values"}, "[8]": {"conditions": "log10[compound] (M) -7.69897, replicate values"}, "[9]": {"conditions": "log10[compound] (M) -8.19897, replicate values"}, "[10]": {"conditions": "log10[compound] (M) -8.69897, replicate values"}, "[11]": {"conditions": "log10[compound] (M) -9.19897, replicate values"}, "[12]": {"conditions": "log10[compound] (M) -9.69897, replicate values"}, "[13]": {"conditions": "log10[compound] (M) -10.199, replicate values"}},
  "note": "Values joined by “and” are separate entries in the source; they are usually repeats but may differ in a detail not shown here. Equal entries are not always repeated.",
  "data": [
    {"compound": "CC[C@H](C(=O)N1CCCC[C@H]1C(=O)O[C@H](CCc1ccc(OC)c(OC)c1)c1ccccc1OCC(=O)NCCCCCCC(=O)N[C@H](C(=O)N1C[C@H](O)C[C@H]1C(=O)N[C@@H](C)c1ccc(-c2scnc2C)cc1)C(C)(C)C)c1cc(OC)c(OC)c(OC)c1", "note": "[dTAG^V-1]", "values": [
      {"measurement": "DMSO-normalized antiproliferation", "setting": "[1]; log10[compound] (M) -5.69897, single replicates", "value": "79.9207 and 69.7647 and 81.656 and 63.0972"},
      {"measurement": "DMSO-normalized antiproliferation", "setting": "[1]; log10[compound] (M) -6.19897, single replicates", "value": "90.8255 and 93.4576 and 97.8876 and 88.6015"},
      {"measurement": "DMSO-normalized antiproliferation", "setting": "[1]; log10[compound] (M) -6.69897, single replicates", "value": "116.805 and 103.649 and 110.913 and 111.967"},
      {"measurement": "DMSO-normalized antiproliferation", "setting": "[1]; log10[compound] (M) -7.19897, single replicates", "value": "115.092 and 118.114 and 123.495 and 124.235"},
      {"measurement": "DMSO-normalized antiproliferation", "setting": "[1]; log10[compound] (M) -7.69897, single replicates", "value": "125.383 and 125.544 and 131.956 and 99.7395"},
      {"measurement": "DMSO-normalized antiproliferation", "setting": "[1]; log10[compound] (M) -8.19897, single replicates", "value": "91.6326 and 122.778 and 124.271 and 121.832"},
      {"measurement": "DMSO-normalized antiproliferation", "setting": "[1]; log10[compound] (M) -8.69897, single replicates", "value": "107.048 and 111.088 and 112.061 and 114.671"},
      {"measurement": "DMSO-normalized antiproliferation", "setting": "[1]; log10[compound] (M) -9.19897, single replicates", "value": "123.177 and 113.909 and 103.784 and 113.953"},
      {"measurement": "DMSO-normalized antiproliferation", "setting": "[1]; log10[compound] (M) -9.69897, single replicates", "value": "118.276 and 100.412 and 114.859 and 101.744"},
      {"measurement": "DMSO-normalized antiproliferation", "setting": "[1]; log10[compound] (M) -10.199, single replicates", "value": "96.4797 and 95.686 and 104.084 and 100.448"},
      {"measurement": "DMSO-normalized antiproliferation", "setting": "[2]; log10[compound] (M) -4.69897", "value": "20.6105 and 17.3638 and 20.4315 and 22.7846"},
      {"measurement": "DMSO-normalized antiproliferation", "setting": "[2]; log10[compound] (M) -5.19897", "value": "21.3993 and 17.4773 and 18.2 and 18.6602"},
      {"measurement": "DMSO-normalized antiproliferation", "setting": "[2]; log10[compound] (M) -5.69897", "value": "16.8112 and 15.7934 and 16.8516 and 16.7935"},
      {"measurement": "DMSO-normalized antiproliferation", "setting": "[2]; [4]", "value": "4.6597 and 4.418 and 4.149 and 3.87"},
      {"measurement": "DMSO-normalized antiproliferation", "setting": "[2]; log10[compound] (M) -6.19897", "value": "20.0987 and 17.9241 and 20.6309 and 19.478"},
      {"measurement": "DMSO-normalized antiproliferation", "setting": "[2]; [5]", "value": "5.446 and 5.94 and 6.406 and 4.294"},
      {"measurement": "DMSO-normalized antiproliferation", "setting": "[2]; log10[compound] (M) -6.69897", "value": "25.9066 and 20.9075 and 21.5913 and 21.1711"},
      {"measurement": "DMSO-normalized antiproliferation", "setting": "[2]; [6]", "value": "8.244 and 7.637 and 8.006 and 6.772"},
      {"measurement": "DMSO-normalized antiproliferation", "setting": "[2]; log10[compound] (M) -7.19897", "value": "27.2696 and 25.1897 and 32.757 and 26.1725"},
      {"measurement": "DMSO-normalized antiproliferation", "setting": "[2]; [7]", "value": "9.134 and 8.1 and 7.928 and 7.914"},
      {"measurement": "DMSO-normalized antiproliferation", "setting": "[2]; log10[compound] (M) -7.69897", "value": "32.5281 and 28.8466 and 33.2484 and 29.8055"},
      {"measurement": "DMSO-normalized antiproliferation", "setting": "[2]; [8]", "value": "23.295 and 23.6499 and 25.1438 and 20.7638"},
      {"measurement": "DMSO-normalized antiproliferation", "setting": "[2]; log10[compound] (M) -8.19897", "value": "71.5602 and 70.7086 and 72.3533 and 72.4741"},
      {"measurement": "DMSO-normalized antiproliferation", "setting": "[2]; [9]", "value": "58.7893 and 63.6738 and 62.8905 and 55.3819"},
      {"measurement": "DMSO-normalized antiproliferation", "setting": "[2]; log10[compound] (M) -8.69897", "value": "90.0484 and 84.5598 and 93.7922 and 91.6223"},
      {"measurement": "DMSO-normalized antiproliferation", "setting": "[2]; [10]", "value": "97.0333 and 109.013 and 119.265 and 75.6713"},
      {"measurement": "DMSO-normalized antiproliferation", "setting": "[2]; log10[compound] (M) -9.19897", "value": "99.7014 and 102.892 and 91.8028 and 106.019"},
      {"measurement": "DMSO-normalized antiproliferation", "setting": "[2]; [11]", "value": "104.958 and 110.142 and 126.275 and 110.446"},
      {"measurement": "DMSO-normalized antiproliferation", "setting": "[2]; [12]", "value": "77.7582 and 88.137 and 113.958 and 92.6055"},
      {"measurement": "DMSO-normalized antiproliferation", "setting": "[2]; [13]", "value": "96.7023 and 108.197 and 96.9121 and 90.9372"},
      {"measurement": "DMSO-normalized antiproliferation", "setting": "[3]; [4]", "value": "35.4292 and 29.4521 and 35.0517 and 31.6104"},
      {"measurement": "DMSO-normalized antiproliferation", "setting": "[3]; [5]", "value": "87.2455 and 81.8203 and 77.0995 and 64.2664"},
      {"measurement": "DMSO-normalized antiproliferation", "setting": "[3]; log10[compound] (M) -6.69897", "value": "102.668 and 99.5089 and 89.7578 and 106.231"},
      {"measurement": "DMSO-normalized antiproliferation", "setting": "[3]; [6]", "value": "124.825 and 81.8259 and 133.331 and 119.877"},
      {"measurement": "DMSO-normalized antiproliferation", "setting": "[3]; log10[compound] (M) -7.19897", "value": "90.1193 and 111.795 and 91.2446 and 98.3924"},
      {"measurement": "DMSO-normalized antiproliferation", "setting": "[3]; [7]", "value": "118.009 and 93.8067 and 130.572 and 123.376"},
      {"measurement": "DMSO-normalized antiproliferation", "setting": "[3]; log10[compound] (M) -7.69897", "value": "112.909 and 117.897 and 108.192 and 99.266"},
      {"measurement": "DMSO-normalized antiproliferation", "setting": "[3]; [8]", "value": "133.195 and 132.373 and 134.672 and 120.383"},
      {"measurement": "DMSO-normalized antiproliferation", "setting": "[3]; log10[compound] (M) -8.19897", "value": "101.415 and 100.309 and 97.138 and 102.461"},
      {"measurement": "DMSO-normalized antiproliferation", "setting": "[3]; [9]", "value": "136.88 and 106.56 and 99.7166 and 163.283"},
      {"measurement": "DMSO-normalized antiproliferation", "setting": "[3]; log10[compound] (M) -8.69897", "value": "103.413 and 90.0724 and 92.9073 and 97.9489"},
      {"measurement": "DMSO-normalized antiproliferation", "setting": "[3]; [10]", "value": "148.548 and 115.202 and 143.359 and 119.836"},
      {"measurement": "DMSO-normalized antiproliferation", "setting": "[3]; [11]", "value": "116.491 and 96.4785 and 115.962 and 80.4138"},
      {"measurement": "DMSO-normalized antiproliferation", "setting": "[3]; [12]", "value": "139.57 and 103.845 and 96.4961 and 122.632"},
      {"measurement": "DMSO-normalized antiproliferation", "setting": "[3]; [13]", "value": "133.817 and 113.621 and 96.1958 and 88.4566"},
      {"measurement": "Effect on FKBP12WT-Nluc (in words)", "setting": "FKBP12^WT-Nluc", "value": "no effects"},
      {"measurement": "Degradation of FKBP12F36V-Nluc (in words)", "setting": "FKBP12^F36V-Nluc", "value": "potent degradation"}
    ]}
  ]
}
